# Source: patent US20260028352A1, “MACROCYCLIC IMIDAZO [1,2-B] PYRIDAZINE DERIVATIVE, PREPARATION METHOD THEREFOR, AND USE THEREOF” (SUZHOU LANGRUI BIOPHARMACEUTICAL CO., LTD., priority 2022, published 2026)
# pIC50: −log10 of the molar value.
# System: Ba/F3-TPM3-NTRK1-G667C cells
# Assay: Growth inhibition of Ba/F3-TPM3-NTRK1-G667C cells (Cell Titer-Glo)
# Assay type: cell-based
# Conditions: 72 hours, CTG; read-out: inhibitory activity IC50 Ba/F3-TPM3-NTRK1-G667C
# Method: Then the solutions were subjected to a gradient dilution with DMSO: a clean, sterile V-bottom 96-well microplate was placed in the biological safety cabinet. First, 4 μL of DMSO was added to well B2 and 10 μL of DMSO was added to wells B3-B11 respectively; Next, 6 μL of the 10 mM solution was added to well B2. The microplate was pipetted up and down 10 times for mixing. […] Mixing was performed by pipetting up and down 10 times. The solution was diluted in order until well B10. only DMSO was added to well B11 (no compound).
# 6× Compound Solution Preparation (6-fold dilution, × represents dilution factor): (Initial final concentration: 10 μM), a clean, sterile V-bottom 96-well microplate was placed in the biological safety cabinet. 99 μL of cell culture medium was added to each well from B2 to G11. By using a 12-channel pipettor, 1 μL of the compound solution prepared in the previous step was added into the corresponding wells. The solutions were pipetted up and down 10 times to mix the solutions. The highest concentration of compound in this step was 60 μM.
# Treatment of Cells: the above-prepared cell culture plate was taken out of the incubator. 20 μL of compound solution from each well was added to the corresponding cell culture wells. The lowest pipetting speed was used and touching the bottom of the plate was avoided. The culture plate was gently shaked to mix the compound solution, then the plate was returned to the incubator for further culture for 72 hours.
# The highest treatment concentration of the compound was 10 μM. After 72 hours of treatment, the Cell Titer-Glo (CTG) assay was performed. First, the cell culture plate was removed from the CO2 incubator and allowed to stand at room temperature for 30 minutes to ensure uniform temperature of the plate. The pre-prepared Cell Titer-Glo reagent (following the manufacturer's instructions) was taken and allowed to stand at room temperature to thaw. 60 μL of Cell Titer-Glo reagent was added to each well containing cells. The cells were incubated on a horizontal shaker in a dark place at 225 rpm for 1 hour at room temperature. Then, a Tecan Spark microplate reader was used to read the plate using chemiluminescence according to the manufacturer's instructions.
row,pIC50,SMILES
1,> 7.00,"Fc1ccc2c(c1)[C@H]1CCCN1c1ccc3ncc(n3n1)-c1cc(cnn1)CCO2 [Example I-91, (3^2R,E)-4^5-fluoro-5-oxa-2(3,6)-imidazo[1,2-b]pyridazina-1(3,5)-pyridazina-3(1,2)-pyrrolidina-4(1,2)-benzenacycloheptaphane]"
2,> 7.00,"C[C@H]1Nc2ccc3ncc(n3n2)-c2cc(ncn2)CCOc2ccc(F)cc21 [Example I-74, (4R,E)-5′-fluoro-4-methyl-6-oxa-3-aza-2(3,6)-imidazo[1,2-b]pyridazina-1(4,6)-pyrimidina-5(1,2)-benzenacyclooctaphane]"
3,> 7.00,"C[C@H]1Nc2ccc3ncc(n3n2)-c2cc(cnn2)COc2ccc(F)cc21 [Example I-82, (6R,E)-54-fluoro-6-methyl-4-oxa-7-aza-1(3,6)-imidazo[1,2-b]pyridazina-2(3,5)-pyridazina-5(1,2)-benzenacycloheptaphane]"
4,> 7.00,"C[C@H]1Nc2ccc3ncc(n3n2)-c2nccc(n2)CCOc2ncc(F)cc21 [Example I-83, (4R,E)-5′-fluoro-4-methyl-6-oxa-3-aza-2(3,6)-imidazo[1,2-b]pyridazina-1(2,4)-pyrimidina-5(3,2)-pyridinacyclooctaphane]"
5,> 7.00,"CC1Nc2ccc3ncc(n3n2)-c2cc(ccn2)OCc2ccc(F)cc21 (stereo not drawn) [Example I-13, (E)-5^4-fluoro-6-methyl-3-oxa-7-aza-1(3,6)-imidazo[1,2-b]pyridazina-2(2,4)-pyridina-5(1,2)-benzenacycloheptaphane]"
6,> 7.00,"C[C@@H]1Cc2ccnc(c2)-c2cnc3ccc(nn23)N[C@H](C)c2cc(F)cnc2O1 [Example I-36, (4R,7R,E)-5^5-fluoro-4,7-dimethyl-6-oxa-3-aza-2(3,6)-imidazo[1,2-b]pyridazina-1(2,4), 5(3,2)-dipyridinacyclooctaphane]"
7,> 7.00,"Fc1ccc2c(c1)[C@H]1CCCN1c1ccc3ncc(n3n1)-c1cc(cnn1)CO2 [Example I-65, (14bR,E)-13-fluoro-14b,15,16,17-tetrahydro-9H-1,19-etheno-4,8-(metheno)benzo[n]imidazo[5,1-h]pyrrolo[1,2-l][1]oxa[5,6,9,10,12]pentaazacyclopentadecine]"
8,> 7.00,"C[C@H]1Nc2ccc3ncc(n3n2)-c2cc(ccn2)N2CCC[C@H](C2)Oc2ccc(F)cc21 [Example I-43, (3^3R,6R,E)-5^4-fluoro-6-methyl-4-oxa-7-aza-1(3,6)-imidazo[1,2-b]pyridazina-2(2,4)-pyridina-3(1,3)-piperidina-5(1,2)-benzenacycloheptaphane]"
9,> 7.00,"Fc1cnc2c(c1)[C@H]1CCCN1c1ccc3ncc(n3n1)-c1cc(cnn1)CCO2 [Example I-93, (3^2R,E)-4^5-fluoro-5-oxa-2(3,6)-imidazo[1,2-b]pyridazina-1(3,5)-pyridazina-4(3,2)-pyridina-3(1,2)-pyrrolidinacycloheptaphane]"
10,> 7.00,"Fc1ccc2c(c1)[C@H]1CCCN1c1ccc3ncc(n3n1)-c1cc(ccn1)[C@@H]1CCC[C@H]1O2 [Example I-46, (8aS,11aR,16bR,E)-15-fluoro-8a,10,11,11a,16b,17,18,19-octahydro-9H-1,21-etheno-4,8-(metheno)benzo[b]cyclopenta[o]imidazo[1,5-h]pyrrolo[2,1-d][1]oxa[5,7,8,11]tetraazacyclohexadecine]"
11,> 7.00,"Fc1ccc2c(c1)C1(CC1)Nc1ccc3ncc(n3n1)-c1cc(ccn1)CO2 [Example I-47, (E)-4′-fluorospiro[cyclopropane-1,6′-4-oxa-7-aza-1(3,6)-imidazo[1,2-b]pyridazina-2(2,4)-pyridina-5(1,2)-benzenacycloheptaphane]]"
12,> 7.00,"C[C@H]1Nc2ccc3ncc(n3n2)-c2cc(ncn2)COc2ncc(F)cc21 [Example I-77, (6R,E)-5^5-fluoro-6-methyl-4-oxa-7-aza-1(3,6)-imidazo[1,2-b]pyridazina-2(4,6)-pyrimidina-5(2,3)-pyridinacycloheptaphane]"
13,> 7.00,"C[C@H]1Nc2ccc3ncc(n3n2)-c2cc(cnn2)COc2ncc(F)cc21 [Example I-81, (6R,E)-5^5-fluoro-6-methyl-4-oxa-7-aza-1(3,6)-imidazo[1,2-b]pyridazina-2(3,5)-pyridazina-5(2,3)-pyridinacycloheptaphane]"
14,> 7.00,"Fc1cnc2c(c1)[C@H]1CCCN1c1ccc3ncc(n3n1)-c1cc(ncn1)CCO2 [Example I-71, (3^2R,E)-4^5-fluoro-5-oxa-2(3,6)-imidazo[1,2-b]pyridazina-1(4,6)-pyrimidina-4(3,2)-pyridina-3(1,2)-pyrrolidinacycloheptaphane]"
15,> 7.00,"C[C@@H]1Cc2cc(ncn2)-c2cnc3ccc(nn23)N[C@H](C)c2cc(F)ccc2O1 [Example I-35, (4R,7R,E)-5^5-fluoro-4,7-dimethyl-6-oxa-3-aza-2(3,6)-imidazo[1,2-b]pyridazina-1(4,6)-pyrimidina-5(1,2)-benzenacyclooctaphane]"
16,> 7.00,"Fc1cnc2c(c1)[C@H]1CCCN1c1ccc3ncc(n3n1)-c1cc(ncn1)CO2 [Example I-59, (14bR,E)-13-fluoro-14b,15,16,17-tetrahydro-9H-1,19-etheno-4,8-(metheno)imidazo[5,1-h]pyrido[3,2-n]pyrrolo[1,2-l][1]oxa[4,6,9,10,12]pentaazacyclopentadecine]"
17,> 7.00,"C[C@H]1Nc2ccc3ncc(n3n2)-c2cc(ccn2)N2CC[C@H](C2)Oc2ccc(F)cc21 [Example I-41, (3^3R,6R,E)-5^4-fluoro-6-methyl-4-oxa-7-aza-1(3,6)-imidazo[1,2-b]pyridazina-2(2,4)-pyridina-3(1,3)-pyrrolidina-5(1,2)-benzenacycloheptaphane]"
18,> 7.00,"C[C@H]1Nc2ccc3ncc(n3n2)-c2cc(ccn2)N2CC[C@@H](C2)Oc2ccc(F)cc21 [Example I-42, (3^3S,6R,E)-5^4-fluoro-6-methyl-4-oxa-7-aza-1(3,6)-imidazo[1,2-b]pyridazina-2(2,4)-pyridina-3(1,3)-pyrrolidina-5(1,2)-benzenacycloheptaphane]"
19,> 7.00,"C[C@H]1Nc2ccc3ncc(n3n2)-c2nccc(n2)COc2ccc(F)cc21 [Example I-80, (6R,E)-5^4-fluoro-6-methyl-4-oxa-7-aza-1(3,6)-imidazo[1,2-b]pyridazina-2(2,4)-pyrimidina-5(1,2)-benzenacycloheptaphane]"
20,> 7.00,"C[C@H]1Nc2ccc3ncc(n3n2)-c2cc(ncn2)CCOc2ncc(F)cc21 [Example I-73, (4R,E)-5^5-fluoro-4-methyl-6-oxa-3-aza-2(3,6)-imidazo[1,2-b]pyridazina-1(4,6)-pyrimidina-5(3,2)-pyridinacyclooctaphane]"
21,> 7.00,"Fc1ccc2c(c1)[C@H]1CCCN1c1ccc3ncc(n3n1)-c1cc(ccn1)CCO2 [Example I-53, (3^2R,E)-4^5-fluoro-5-oxa-2(3,6)-imidazo[1,2-b]pyridazina-1(2,4)-pyridina-3(1,2)-pyrrolidina-4(1,2)-benzenacycloheptaphane]"
22,> 7.00,"Fc1cnc2c(c1)[C@H]1CCCN1c1ccc3ncc(n3n1)-c1cc(ccn1)CCO2 [Example I-55, (3^2R,E)-4^5-fluoro-5-oxa-2(3,6)-imidazo[1,2-b]pyridazina-1(2,4),4(3,2)-dipyridina-3(1,2)-pyrrolidinacycloheptaphane]"
23,> 7.00,"C[C@H]1Nc2ccc3ncc(n3n2)-c2nccc(n2)CCOc2ccc(F)cc21 [Example I-84, (4R,E)-5^5-fluoro-4-methyl-6-oxa-3-aza-2(3,6)-imidazo[1,2-b]pyridazina-1(2,4)-pyrimidina-5(1,2)-benzenacyclooctaphane]"
24,> 7.00,"C[C@@H]1Cc2ccnc(c2)-c2cnc3ccc(nn23)N2CCC[C@@H]2c2cc(F)ccc2O1 [Example I-37, (3^2R,6R,E)-4^5-fluoro-6-methyl-5-oxa-2(3,6)-imidazo[1,2-b]pyridazina-1(2,4)-pyridina-3(1,2)-pyrrolidina-4(1,2)-benzenacycloheptaphane]"
25,> 7.00,"C[C@H]1Nc2ccc3ncc(n3n2)-c2cc(ccn2)CCOc2ccc(F)cc21 [Example I-76, (4R,E)-5-fluoro-4-methyl-6-oxa-3-aza-2(3,6)-imidazo[1,2-b]pyridazina-1(2,4)-pyridina-5(1,2)-benzenacyclooctaphane]"
26,> 7.00,"Fc1cnc2c(c1)[C@H]1CCCN1c1ccc3ncc(n3n1)-c1nccc(n1)CO2 [Example I-63, (14bR,E)-13-fluoro-14b,15,16,17-tetrahydro-9H-4,8-(azeno)-1,19-etheno imidazo[1,5-h]pyrido[2,3-b]pyrrolo[2,1-d][1]oxa[5,7,8,11]tetraazacyclopentadecine]"
27,> 7.00,"Fc1cnc2c(c1)[C@H]1CCCN1c1ccc3ncc(n3n1)-c1cc(ccn1)CO2 [Example I-51, (14bR,E)-13-fluoro-14b,15,16,17-tetrahydro-9H-1,19-etheno-4,8-(metheno)imidazo[1,5-h]pyrido[2,3-b]pyrrolo[2,1-d][1]oxa[5,7,8,11]tetraazacyclopentadecine]"
